# Measurements published in PubChem BioAssay (NCI).
# Where “and” joins values, the source holds several entries; their conditions need not be identical. Equal values may be shown once.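 Step 1: Grow cells in 96-well plates. Step 2: Expose to compound for 48 hours at 5 concentrations. Step 3: Interpolate endpoints linearly; if unreached, use highest concentration. Abbreviation: GI50, concentration required for 50% inhibition of growth. The concentration for full growth arrest is given as TGI.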
# How the values were obtained:
# Test in all cases: NCI anticancer screen, dose series, 48 h
# [1] = system: COLO 205 colon
# [2] = system: SW-620 colon
# [3] = system: NCI-H23 lung
# [4] = system: ACHN renal
# [5] = system: SR leukemia
# [6] = system: OVCAR-5 ovarian
# [7] = system: HCC-2998 colon
# [8] = system: NCI-H226 lung
# [9] = system: NCI-H460 lung
# [10] = system: SF-268 CNS
Compound,TGI [1],TGI [2],TGI [3],TGI [4],TGI [5],TGI [6],TGI [7],TGI [8],TGI [9],TGI [10],GI50 [2],GI50 [3],GI50 [4],GI50 [5],GI50 [6],GI50 [7],GI50 [8],GI50 [9],GI50 [10],GI50 [1]
O=C1c2ccccc2-c2c1c1ccccc1c(=O)n2-c1ccccc1,> 100 µM,> 100 µM,24 µM,17.1 µM,> 100 µM,> 100 µM,> 100 µM,41.4 µM,36.6 µM,52.7 µM,,,,,,,,,,
CCCn1c(N)c(C(=O)CNc2ccc(I)cc2)c(=O)[nH]c1=O,> 100 µM,> 100 µM,> 100 µM,> 100 µM,28.3 µM,> 100 µM,> 90.6 µM,> 100 µM,> 100 µM,> 100 µM,2.89 µM,> 61.4 µM,8.69 µM,0.378 µM,> 100 µM,4.23 µM,12.9 µM,0.393 µM,4.55 µM,
Cc1c(C(=O)O[C@H]2[C@@H]3[C@H](C)CC[C@H]3[C@]3(C)O[C@@]2(C2CCCCC2)C[C@H]3OC(=O)CO)ccc2ccccc12,17.5 µM,16.3 µM,17.7 µM,0.766 µM,18.3 µM,17.8 µM,15.8 µM,15.1 µM,16.6 µM,11.8 µM,8.01 µM,8.29 µM,0.0589 µM,7.36 µM,9.5 µM,8.09 µM,7.67 µM,7.87 µM,3.49 µM,9.2 µM
Cc1sc2ncn(Cc3ccc(Cl)c(Cl)c3)c(=O)c2c1C,> 100 µM,> 100 µM,> 100 µM,> 100 µM,> 100 µM,79.7 µM,30.1 µM,> 100 µM,> 100 µM,> 100 µM,59.8 µM,32.5 µM,12.4 µM,29.8 µM,21.6 µM,7.39 µM,> 100 µM,51.5 µM,25.5 µM,63.2 µM
Nc1c(C(=O)Nc2cccc(Br)c2)sc2nc3c(cc12)C(O)CCC3 (centres undefined),> 32 µM,> 82 µM,> 100 µM,31.1 µM,> 46 µM,60 µM,50.2 µM,54.4 µM,22 µM,> 57.6 µM,0.4 µM,0.761 µM,0.848 µM,0.228 µM,3.37 µM,1.61 µM,0.936 µM,0.375 µM,0.682 µM,0.41 µM
COc1cc(C2c3cc4c(cc3[C@@H](Nc3ccc(N)cc3)C3COC(=O)[C@H]23)OCO4)cc(OC)c1O (some centres undefined),47.7 µM,24.5 µM,4.85 µM,6.05 µM,0.682 µM and 6.81 µM,31.6 µM,9.07 µM,0.868 µM and 4.7 µM,2.36 µM,19.3 µM,0.823 µM,0.415 µM,0.345 µM,0.151 µM,0.896 µM,,0.336 µM,0.139 µM,0.89 µM,0.996 µM
Nc1nc(N)c(-c2ccccc2)c(CCC(=O)Nc2ccc(Cl)cc2)n1,> 100 µM,> 100 µM,> 100 µM,> 100 µM,> 100 µM,> 100 µM,> 100 µM,> 100 µM,> 100 µM,> 100 µM,,,,,,,,,,
O=C(Nc1cccc(C(F)(F)F)c1)c1cc(Br)cc(Br)c1O,9.71 µM,> 10 µM,5.27 µM,9.29 µM,> 10 µM,> 10 µM,> 10 µM,9.42 µM,> 10 µM,> 10 µM,,,,,,,,,,
NS(=O)(=O)c1ccc(NC(=O)COC(=O)c2cccc3c(=O)c4ccccc4[nH]c23)cc1,> 100 µM,> 100 µM,60.5 µM,71.9 µM,19.7 µM,> 90 µM,> 100 µM,61.1 µM,> 100 µM,36.9 µM,,,,,,,,,,
Cc1ncc([N+](=O)[O-])n1CCNC(=O)CCCCCn1ccnc1[N+](=O)[O-],> 100 µM,> 100 µM,> 100 µM,> 100 µM,> 100 µM,> 100 µM,> 100 µM,> 100 µM,> 100 µM,> 100 µM,,,,,,,,,,
CCCCCCNC(=O)Oc1ccc(/C(=C(\C)c2ccccc2)c2ccc(OCCN(CC)CC)cc2)cc1,2.49 µM,3.26 µM,11.6 µM,12.2 µM,3.18 µM,13.2 µM,8.16 µM,14.3 µM,3.62 µM,13.1 µM,1.3 µM,5.17 µM,5.99 µM,1.09 µM,6.71 µM,2.33 µM,6.67 µM,1.4 µM,5.54 µM,1.17 µM
Cc1ccc2c(c1)C(=O)c1c-2n(CCCN=[N+]=[N-])c(=O)c2cc([N+](=O)[O-])ccc12,> 100 µM,> 100 µM,> 100 µM,> 100 µM,63.1 µM,> 100 µM,> 100 µM,> 100 µM,> 100 µM,> 100 µM,59.7 µM,> 100 µM,30.8 µM,8.21 µM,> 100 µM,> 100 µM,> 100 µM,21.1 µM,5.59 µM,> 100 µM
CC1=C(C(=O)Nc2ccccc2)C(c2ccc(C(C)C)cc2)C(C(=O)Nc2ccccc2)=C(C)N1,28.6 µM,41.5 µM,> 58.5 µM,> 66.9 µM,55.5 µM,38.5 µM,20.9 µM,54.9 µM,55.4 µM,> 100 µM,,,,,,,,,,
O=c1c2c3c(sc2n2c(-c4ccc(Br)cc4)nnc2n1Cc1ccccc1)CCCC3,22.8 µM,26.3 µM,31.3 µM,21.1 µM,23.6 µM,24.8 µM,13.4 µM,20.3 µM,22.3 µM,21.1 µM,13.1 µM,12.4 µM,8.74 µM,4.76 µM,9.1 µM,3.25 µM,7.32 µM,10.2 µM,7.44 µM,8.24 µM
COc1cc(-c2nn(-c3ccc(NC(=O)c4cc(Cl)cc(Cl)c4)cc3)cc2-c2ccncc2)ccc1Cl,> 100 µM,> 100 µM,> 100 µM,> 100 µM,> 100 µM,> 100 µM,> 100 µM,> 100 µM,> 100 µM,> 100 µM,> 100 µM,> 100 µM,> 100 µM,> 100 µM,> 100 µM,5.88 µM,> 100 µM,8.48 µM,> 100 µM,6.61 µM
CCOc1cc(C(C)(C)C)ccc1C1=N[C@@](C)(c2ccc(Cl)cc2)[C@@](C)(c2ccc(Cl)cc2)N1C(=O)N1CCN(CCS(C)(=O)=O)CC1,4.01 µM,20.5 µM,20.2 µM,2.56 µM,5.26 µM,7.8 µM,4.98 µM,2.13 µM,5.4 µM,17.4 µM,5.03 µM,4.69 µM,0.45 µM,0.198 µM,2.46 µM,2.28 µM,0.5 µM,1.1 µM,3.82 µM,2.03 µM
CCOC(=O)c1ccccc1-c1c2ccc(=[N+](C)C)cc-2oc2cc(N(C)C)ccc12,0.43 µM,17.4 µM,11.9 µM,8.1 µM,27.4 µM,> 39.6 µM,13.9 µM,10.2 µM,4.42 µM,27.5 µM,0.261 µM,0.231 µM,1.28 µM,0.298 µM,0.537 µM,0.35 µM,0.758 µM,0.23 µM,0.332 µM,0.143 µM
COc1ccc(NC(=O)/C=C(C)/C=C/C=C(C)\C=C\C2=C(C)CCCC2(C)C)cc1,> 100 µM,> 100 µM,> 100 µM,> 100 µM,80.8 µM,> 100 µM,> 100 µM,> 100 µM,> 100 µM,> 100 µM,51.6 µM,30.1 µM,> 100 µM,28.8 µM,> 100 µM,> 100 µM,> 100 µM,84 µM,> 100 µM,75.9 µM
C=CCCC(=O)N1C=CC(=O)[C@H](O)[C@@H]1/C=C/c1ccccc1,> 32.5 µM,> 32.5 µM,> 32.5 µM,> 32.5 µM,> 32.5 µM,> 32.5 µM,> 32.5 µM,> 32.5 µM,> 32.5 µM,> 32.5 µM,12.8 µM,23.6 µM,5.27 µM,4.28 µM,> 32.5 µM,11.6 µM,9.57 µM,6.65 µM,7.03 µM,10.9 µM
Cc1cc(S(=O)(=O)Nc2nc3cc(Cl)ccc3o2)c(SCc2ccccc2)cc1Cl,44.1 µM,38.5 µM,54.2 µM,34.9 µM,> 100 µM,43 µM,37.4 µM,> 100 µM,58.5 µM,49.7 µM,19.2 µM,26.5 µM,18.5 µM,46 µM,22.7 µM,18.9 µM,38.5 µM,21.7 µM,21.5 µM,21.2 µM
N=C(N)SCCc1ccccn1,> 100 µM,> 100 µM,> 100 µM,> 100 µM,> 100 µM,> 100 µM,> 100 µM,> 100 µM,> 100 µM,> 100 µM,,35.5 µM and > 100 µM,,,,,,,,
CC(C)(C)OC(=O)N1N=NC2C3OC(CC3=O)C21 (centres undefined),> 100 µM,> 100 µM,> 100 µM,> 100 µM,> 100 µM,> 100 µM,> 100 µM,8.96 µM,> 100 µM,> 100 µM,,,,,,,,,,
